The values that follow come from patent US20070078125A1, “Arylamine mch r1 antagonists” (GLAXO GROUP LIMITED, priority 2003, published 2007).

Structures are written as SMILES.

The target of one series is T1, hERG potassium channel (Homo sapiens, UniProt Q12809).
T1 construct: expressed in transfected cells; host or cells: HEK-293 cells, BacMam viral expression system
Briefly: hERG whole cell patch clamp, tail current inhibition in HEK-293 cells. The series is classed as cell-based. The conditions noted are these: tail current at −40 mV, room temperature; for inhibition at 3 µM: human, pH 7.4, 3 μM, read-out: hERG Inhibition, % inhib. @ 3 μM. On the procedure:
The comparison was carried out as follows. The hERG potassium channels were transiently expressed in HEK-293 cells using the Bacmam viral expression system (Kost et al, 2000: Pfohl et al, 2001). The HEK-293 cells were maintained in cell media comprised of D-MEM/F12, 10% fetal bovine serum, penicillin G sodium 100 units/mL, and streptomycin sulfate 100 μg/mL. Cells were grown to confluency in flasks and were rinsed once with PBS prior to passage. The flasks were incubated with VERSENE (EDTA) 1:5000 for 5 minutes at 37° C. to detach the cells from the flasks. Cells used in electrophysiology experiments were plated on glass coverslips and transfected 24 to 72 hours prior to use.
hERG channels were studied using the whole cell mode of the patch clamp technique (Hamill et al., 1981). The pipette solution contained 145 mM K+Aspartate, 11 mM EGTA, 5 mM NaCl, 5 mM MgATP, 5 mM HEPES, pH 7.4, and the bath solution contained 145 mM NaCl, 4 mM KCl, 2 mM CaCl2, 1 mM MgCl2, 10 mM HEPES, 10 mM d-glucose pH 7.4. To measure drug effects, the cells were held at −80 mV, then stepped to +20 mV for 400 ms followed by a second pulse to −40 mV so that the outward tail current characteristic of hERG could be measured. […] This pulse protocol was repeated at ten-second intervals during the superfusion of the test article diluted in the bath solution. The inhibition of hERG was determined by measuring the peak amplitude of the tail currents at −40 mV before and after compound application. The half-maximal inhibitory concentration (IC50) was determined from a curve fit of Hill equation to the data points. […] All experiments were conducted at room temperature (approximately 25° C.).

The next series addresses T2, MCH R1 (Homo sapiens, UniProt Q99705).
T2 construct: expressed in transfected cells; host or cells: CHO cells stably expressing elkgal4-luc+ reporter gene (CHO-K1, ATCC)
As to the kind of experiment: functional antagonist assay of MCH R1 (elkgal4-luc+ reporter gene, CHO cells, inhibition of MCH EC80 response). The conditions noted are these: MCH1R-elkgal4-luc+ CHO cells, read-out: MCH R1 pIC50 (converted). It counts as cell-based. From the text: The activity of the compounds used in this invention may be assessed in a functional assay of MCH R1 as follows:
Black, 96-well, tissue culture-treated plates (#3904) were obtained from Corning Costar, (Cambridge, Mass.), LucPlus™ Luciferase Reporter Gene Assay Kit (# 6016969) was from Packard (Meriden, Conn.), plate seals (#097-05-00006) were from Beckman/Sagian (Fullerton, Calif.). DMEM/F12 medium (#11039-021), fetal bovine serum (# 16140-071), L-glutamine (#25030-081), 0.05% trypsin (# 25300-054), G418 (#10131-035) and dPBS (#4190-144) were obtained from Gibco BRL (Gaithersburg, Md.). […]
CHO cells, stably expressing an elkgal4-luc^+ reporter gene (host) were transfected by electroporation with the human melanin-concentrating hormone one receptor. […] Plates were sealed and subjected to dark adaptation at room temperature for 10 minutes before luciferase activity was quantitated on a TopCount™ microplate scintillation counter (Packard) using 3 seconds/well count time. The ability of the antagonist to inhibit the MCH EC80 response was quantified by non-linear regression analysis using a curve-fitting program based in Microsoft ExCel. Specificity of the MCH R1 response was determined using the same protocol by measuring the ability of said antagonists to inhibit an EC80 thrombin response (endogenous) in the host cells.
(In general: In a reporter assay the amount or activity of a reporter protein is the signal.)

T1 sequence (Q12809 whole entry): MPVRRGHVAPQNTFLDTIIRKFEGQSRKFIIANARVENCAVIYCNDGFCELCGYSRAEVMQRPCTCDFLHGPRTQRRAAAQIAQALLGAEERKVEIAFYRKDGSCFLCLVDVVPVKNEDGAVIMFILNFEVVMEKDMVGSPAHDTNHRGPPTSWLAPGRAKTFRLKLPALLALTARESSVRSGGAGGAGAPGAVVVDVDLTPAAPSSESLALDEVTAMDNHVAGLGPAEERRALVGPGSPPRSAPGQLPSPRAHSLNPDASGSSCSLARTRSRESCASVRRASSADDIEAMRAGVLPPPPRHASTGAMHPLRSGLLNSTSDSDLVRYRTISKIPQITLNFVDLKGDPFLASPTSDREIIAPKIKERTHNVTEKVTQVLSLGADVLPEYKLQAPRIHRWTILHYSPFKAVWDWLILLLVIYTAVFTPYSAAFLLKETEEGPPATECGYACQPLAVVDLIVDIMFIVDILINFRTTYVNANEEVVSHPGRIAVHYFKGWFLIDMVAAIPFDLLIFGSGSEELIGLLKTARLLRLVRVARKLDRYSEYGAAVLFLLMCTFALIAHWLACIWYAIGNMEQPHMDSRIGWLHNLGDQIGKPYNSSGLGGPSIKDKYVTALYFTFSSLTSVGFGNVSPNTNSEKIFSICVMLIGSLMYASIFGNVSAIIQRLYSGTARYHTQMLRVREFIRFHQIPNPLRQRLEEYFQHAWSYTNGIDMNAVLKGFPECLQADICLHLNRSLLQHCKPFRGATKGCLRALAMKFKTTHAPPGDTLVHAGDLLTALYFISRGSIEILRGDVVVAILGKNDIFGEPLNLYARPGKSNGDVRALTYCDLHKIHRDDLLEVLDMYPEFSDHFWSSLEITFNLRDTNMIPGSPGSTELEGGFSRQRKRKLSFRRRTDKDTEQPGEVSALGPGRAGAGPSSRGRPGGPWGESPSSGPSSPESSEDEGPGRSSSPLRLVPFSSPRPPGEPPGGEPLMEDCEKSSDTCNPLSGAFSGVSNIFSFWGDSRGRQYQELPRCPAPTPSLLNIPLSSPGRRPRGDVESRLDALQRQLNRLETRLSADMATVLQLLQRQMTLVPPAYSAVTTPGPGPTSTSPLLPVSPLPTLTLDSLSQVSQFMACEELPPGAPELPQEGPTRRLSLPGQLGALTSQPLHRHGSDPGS
T2 sequence (Q99705 whole entry, the tested form may be a part): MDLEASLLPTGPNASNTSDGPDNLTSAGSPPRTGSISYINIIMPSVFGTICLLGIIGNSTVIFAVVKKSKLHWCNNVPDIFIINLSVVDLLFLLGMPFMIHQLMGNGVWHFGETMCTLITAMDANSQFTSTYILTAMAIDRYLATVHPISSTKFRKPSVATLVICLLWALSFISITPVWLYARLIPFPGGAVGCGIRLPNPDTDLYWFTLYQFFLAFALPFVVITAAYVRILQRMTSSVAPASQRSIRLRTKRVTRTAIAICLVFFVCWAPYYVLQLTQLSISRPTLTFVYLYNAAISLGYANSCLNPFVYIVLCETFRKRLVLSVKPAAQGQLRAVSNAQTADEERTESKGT

As for `COc1cc(-n2cnc3cc(-c4ccc(Cl)cc4)sc3c2=O)ccc1OCCN1CC[C@H](O)C1` [Comparison Example 1], at hERG potassium channel, the inhibition at 3 µM is 62% and the IC50 came out at 2000 nM. On to `COc1cc(-n2cnc3cc(-c4ccc(Cl)cc4)sc3c2=O)ccc1OCCCN1CC[C@@H](O)C1` [Comparison Example 3], for which, at hERG potassium channel, the inhibition at 3 µM was 84%. For the compound `COc1cc(-n2cnc3cc(-c4ccc(Cl)cc4)sc3c2=O)ccc1OCCN1CC[C@@H](O)C1` [Comparison Example 2], the inhibition at 3 µM at hERG potassium channel was 90%. Take `COc1cc(-n2cnc3cc(-c4ccc(Cl)cc4)sc3c2=O)ccc1N1CC[C@@H](O)C1` [Example 1, 6-(4-chlorophenyl)-3-{4-[(3R)-3-hydroxypyrrolidin-1-yl]-3-methoxyphenyl}thieno[3,2-d]pyrimidin-4(3H)-one]: the IC50 at MCH R1 was 2.51 nM. On to `COc1cc(-n2cnc3cc(-c4ccc(Cl)cc4)sc3c2=O)ccc1N1CC[C@H](O)C1` [Example 4, 6-(4-chlorophenyl)-3-{4-[(3S)-3-hydroxypyrrolidin-1-yl]-3-methoxyphenyl}thieno[3,2-d]pyrimidin-4(3H)-one], for which the IC50 on MCH R1 is 2 nM.

The inhibition is the drop in the measured response relative to a control, in per cent.
